One assay relates to HT1080 cells. Nature of the assay: Apoptosis (sub-G1) of HT1080 cells by propidium iodide FACS analysis. The format is cell-based. The following applies: for sub-G1 stage induction (apoptosis): 3 μM VST. The method, then:
HT1080 cells were pretreated for 30 min with 3 μM of VST, after fixing the cells the nuclei were stained with propidium iodide for FACS analysis. […] In contrast, only a very limited number of HT1080 cells underwent apoptosis with glucose starvation treatment alone.

The test system of assay [1] is HeLa cells and various other culture cells. The experiment in a line: Survival rate of a variety of cells, MTT method (all cell lines together). The format is cell-based. An excerpt: (§1) In this Example, HeLa cells and various other culture cells were used to measure the survival rate during the above-mentioned reporter analysis and VST addition. Specifically, in addition to HeLa cells (human cervical cancer cells), MCF-7 (human breast cancer cells), PC12NH (rat pheochromocytoma), MDA-MB-231 (human breast cancer cells), TIG-3 (human normal fibroblast cells), HeLa 786C cells (human cervical cancer cells), Saos-2 (telomerase and p53-deficient human cancer cells) and SUSM-1 (telomerase-deficient human cancer cells) were used.
(§2) The direct growth suppression activity of VST on these cells was measured using the MTT method. 100 μL cell suspension (5×10^4/mL) of each of the above-mentioned cells was dispensed into each well of a 96-well plate and cultured for 6 hours at 37° C. After culturing, VST solution diluted stepwise as in Example 4 was added thereto and cultured for another 24 hours. After culturing for 24 hours, 0.05 g/mL MTT solution (10 μL) was added to each well and incubation was performed at 37° C. for 4 hours. The medium was then removed, DMSO (100 μL) was added, and the absorbance at 530 nm was measured (FIG. 8).

Another assay deals with HT-29 cells. The experiment in a line: Antitumor effect against HT-29 cells transplanted into nude mice. The format is in vivo. The protocol:
The antitumor effect of VST at the animal level was examined. Specifically, HT-29 cells were transplanted into nude mice and tumor was grown to 100 mm^3. Subsequently, each concentration of VST was administered through the tail vein, progress of cancer was followed each day thereafter, and the tumor was enucleated to compare its size. […] Furthermore, the combined effect with CDDP (cisplatin) was examined.

For the next assay, the system named is GRP78. Nature of the assay: Western blotting of GRP78 induction in HT1080 cells under endoplasmic reticulum stress. The assay is classed as cell-based. The note with it: pretreated 30 min, 18 hours. The method, then:
Specifically, […] HT-29 and HT1080 were cultured in RPMI1640 medium and pretreated for 30 min with 3 μM and 30 μM VST. Next, the GRP78 level was detected 18 hours after each endoplasmic reticulum stress treatment by Western blotting (FIG. 10). […] This phenomenon could be elucidated for the first time by the use of VST.
In general terms: Immunoblotting shows a protein as a band on a membrane.

The subject of the next assay is MCF-7. Nature of the assay: Direct growth suppression, MTT method. The assay is classed as cell-based. The following applies: Homo sapiens, MCF7, 24 hours, read-out: IC50 of VST.
From the text: as §1, §2
(Formazan colour is commonly taken as a measure of viable cells.)

For another assay, the system named is PC12NH. Nature of the assay: Direct growth suppression, MTT method. The format is cell-based. The following applies: Rattus norvegicus, 24 hours, read-out: IC50 of VST.
From the text: as §1, §2

A further assay has as its system TIG-3. Nature of the assay: Direct growth suppression, MTT method. The assay is classed as cell-based. The note with it: Homo sapiens, 24 hours, read-out: IC50 of VST.
From the text: as §1, §2

The test system of the next assay is HeLa786C. Nature of the assay: Direct growth suppression, MTT method. The note with it: Homo sapiens, 24 hours, read-out: IC50 of VST. The format is cell-based.
From the text: as §1, §2

The subject of the next assay is MDA-MB-231. The experiment in a line: Direct growth suppression, MTT method. The following applies: Homo sapiens, 24 hours, read-out: IC50 of VST. The format is cell-based.
From the text: as §1, §2

The next assay concerns HeLa cells. Nature of the assay: Direct growth suppression, MTT method. The format is cell-based. The following applies: Homo sapiens, 24 hours, read-out: IC50 of VST.
From the text: as §1, §2

Another assay has as its system SUSM-1. The experiment in a line: Direct growth suppression, MTT method. The format is cell-based. The following applies: Homo sapiens, 24 hours, read-out: IC50 of VST.
From the text: as §1, §2

A further assay relates to Saos-2. Nature of the assay: Direct growth suppression, MTT method. The assay is classed as cell-based. The following applies: Homo sapiens, 24 hours, read-out: IC50 of VST.
From the text: as §1, §2

The test system of a further assay is HSP70 heat shock protein. The experiment in a line: Transcriptional activity of HSP70 (no data shown). The assay is classed as cell-based.
In another assay the test system is XBP1. Nature of the assay: Formation of spliced XBP1 in HT1080 transfected with Flag-tagged XBP1. The format is cell-based. An excerpt:
To elucidate the mechanism of VST to express its activity, the effect of VST on several factors that function in the pathway of endoplasmic reticulum stress response was examined. In particular, Ire1α-XBP1 pathway, a pathway of endoplasmic reticulum stress response and is widely conserved from yeast to mammalian cells, was examined. XBP1 spliced at the mRNA level from a precursor (XBP1 (U)) by Ire1α, that is activated in response to endoplasmic reticulum stress turns into the activated form (XBP1(S)), transfers to the nucleus, and induces transcription of GRP78 by binding to the GRP78 promoter, ERSE.
A plasmid wherein a Flag tag is linked to the cloned XBP1 was transfected into HT1080, and the cell was pretreated for 30 min with VST. 6 hours after imposing each stress, proteasome inhibitor MG132 was added and the cells were cultured for another 6 hours to prepare samples. The full length and spliced XBP1 were detected in the samples using anti-Flag antibody. Examination on the formation of the spliced form XBP1 due to 2-DG treatment is shown in FIG. 16A and that due to tunicamycin treatment is shown in FIG. 16B. Since the spliced form of XBP1 is very rapidly degraded by proteasomes, its detection is difficult. To overcome this problem, proteasome inhibitor MG132 was added. […]

Structures are written as SMILES. Bounds are passed on as bounds.

One may read the IC50 as the point on the concentration scale where inhibition reaches its midpoint. Take `CC/C1=C\C(CO)CC(C)C(OC2CC(O)C(OC3CC(OC)C(OC4CC(O)C(O)C(C)O4)C(C)O3)C(C)O2)C(C)CCCC2(C)C=C(C)C(C)CC23OC(=O)C(=C3O)C(=O)C2(CC)C1C(C)=CC1C(O)CC(=O)C(C)C12` (stereo not drawn) [VST, versipelostatin]: the “sub-G1 stage induction (apoptosis)” value in the assay with HT1080 cells (glucose starvation condition, after 48 hours) is recorded as “strong sub-G1 stage induction”; with HT1080 cells (in the presence of glucose), “did not show any effect”. Besides, in the assay on HT1080 cells (glucose starvation conditions (FIG. 13)), the “induction of apoptosis, sequential changes” value is “time-dependent manner”. Also, the “degree of decrease of survival rate” value in assay [1] (VST 100 μg/mL, many cell lines) is ≤ 50%. For the same compound, the survival rate entry in [1] (VST approximately 10 μg/mL) is listed as “slight decrease was observed in a few cell lines”; in [1] (VST final concentration of 1 μg/mL, all cell lines) it was “No decrease in the survival rate was observed”. For the same compound, in the assay on HT-29 cells (HT-29 tumor grown to 100 mm^3 in nude mice, VST through the tail vein (FIG. 15)), the “antitumor effect (tumor size)” value is reported as “showed antitumor effect, although the effect was not as strong as cisplatin”. Also, the “combined effect with CDDP (cisplatin)” value with HT-29 cells (HT-29 tumor in nude mice) was “no effect due to the combination could be confirmed”. In addition, the “induction of GRP78 by 2-DG” value in the assay on GRP78 (3 μM VST) was “inhibits the induction of GRP78”. The “GRP78 induction due to tunicamycin treatment” value in the assay with GRP78 (30 μM VST) is on record as “did not inhibit GRP78 induction”. The IC50 is > 100 µM in the assay with MCF-7; > 100 µM with PC12NH; > 100 µM in the assay on TIG-3; 52.9 µM with HeLa786C; > 100 µM in the assay on MDA-MB-231; > 100 µM in the assay with HeLa cells. Moreover, the 50% inhibitory concentration (IC50) in the assay with SUSM-1 and in the assay with Saos-2 was > 100 µM in each case. In addition, in the assay on HSP70 heat shock protein, the “influence on the transcriptional activity of HSP70 heat shock protein” value is on record as “no influence”. Further, the “formation of spliced XBP1” value with XBP1 (2-DG treatment, MG132 added (FIG. 16A)) is listed as “inhibited”; with XBP1 (tunicamycin treatment, MG132 added (FIG. 16B)) it was “did not inhibit the splicing of XBP1”.
